Measurements published in US10907191B2, “Method for measuring activity of oxidoreductase” (NATIONAL AGRICULTURE AND FOOD RESEARCH ORGANIZATION, priority 2016, dated 2021).

Target: T1, HAO derived from Nitrosomonas europaea (Nitrosomonas europaea, UniProt Q50925)
T1 construct: HAO was purified from ammonia oxidizing bacteria, and stored in a solution state or after drying; made in house; host or cells: Nitrosomonas europaea cells (native enzyme, not recombinant), purified by column chromatography
T1 sequence (Q50925 25-570): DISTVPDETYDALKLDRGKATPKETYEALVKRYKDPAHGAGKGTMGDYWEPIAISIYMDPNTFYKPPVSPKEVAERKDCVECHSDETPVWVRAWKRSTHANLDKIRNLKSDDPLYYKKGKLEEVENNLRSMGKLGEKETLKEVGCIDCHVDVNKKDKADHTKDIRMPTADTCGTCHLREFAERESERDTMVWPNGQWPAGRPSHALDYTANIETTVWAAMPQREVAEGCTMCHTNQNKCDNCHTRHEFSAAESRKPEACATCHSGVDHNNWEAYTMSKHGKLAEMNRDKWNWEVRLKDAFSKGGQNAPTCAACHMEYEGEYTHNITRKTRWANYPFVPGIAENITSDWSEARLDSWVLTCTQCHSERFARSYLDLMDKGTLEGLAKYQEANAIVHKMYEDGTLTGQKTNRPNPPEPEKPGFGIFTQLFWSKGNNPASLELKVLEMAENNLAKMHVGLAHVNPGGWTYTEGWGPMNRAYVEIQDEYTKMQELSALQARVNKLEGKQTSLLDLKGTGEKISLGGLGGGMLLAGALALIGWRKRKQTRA
Test: Determination of 50% inhibitory concentration against HAO by HAO fluorescence measurement (resazurin method)
Format: biochemical
Details: n=4, nonlinear fitting
Experimental: The HAO fluorescence activity measurement was carried out to the compound library for screening by the resazurin method, and the inhibitory effect of these compounds was verified. The 40 kinds of compounds were dissolved in DMSO for molecular biology (available from Wako Pure Chemical Industries, Ltd.) or ultrapure water at a concentration of 100 mM, and further 2-fold dilution series was prepared with 16 series (100 mM, 50 mM, 25 mM, 12.5 mM, 6.25 mM, 3.13 mM, 1.56 mM, 0.78 mM, 0.39 mM, 0.19 mM, 97 μM, 48.8 μM, 24.4 μM, 12.2 μM, 6.1 μM and 3.1 μM) (final concentration becomes 1/200 concentration thereof). […] The plate was inserted into a fluorescence plate reader attached with a reagent injector (infinite M1000 PRO, manufactured by Tecan Co.), and 25 μL of 4 mM hydroxylamine stock solution for 4-fold dilution was added per well, so that an amount of the hydroxylamine to that of the resazurin was made 10-fold amount (molar ratio) in the reaction system. After 2 hours of incubation, fluorescence measurement (excitation wavelength 562 nm: wavelength width 20 nm, measurement wavelength 592 nm: wavelength width 20 nm) was carried out. Candidate compound A was selected as a inhibitor which decreased the fluorescence intensity to 10% or less compared with without-inhibitor condition. […]

NNc1ccccc1 [phenylhydrazine]
IC50: 276 nM
